PMC11855827, “High-Throughput Screening of Five Compound Libraries for Anthelmintic Activity and Toxicity Leads to the Discovery of Two Flavonoid Compounds” (International Journal of Molecular Sciences, 2025)
Several values for one entry are separate records, joined by “and”; a condition that tells them apart may be missing. Equal entries are not always repeated. Structures can show the parent of a compound that is named as a salt. Where two headings read alike, the source gives them in different places.

Tested on: C. elegans
[1] = Table S2, C. elegans SS assay, 110 μM, 0 h, averages of 4 data points
[2] = Table S2, C. elegans SS assay, 110 μM, 24 h, averages of 4 data points

Row | Compound | Percentage of motility inhibition 0 h [1] | Percentage of motility inhibition 24 h [2] | Percentage of motility inhibition 0 h (110 µM) | Percentage of motility inhibition 24 h (110 µM)
1 | C[C@H]1O[C@@H](O[C@H]2CC[C@@]3(C)[C@@H](CC[C@]4(C)[C@@H]3C=C[C@]35OC[C@@]6(CCC(C)(C)C[C@H]63)[C@H](O)C[C@]54C)[C@]2(C)CO)[C@H](O)[C@@H](O[C@@H]2O[C@H](CO)[C@@H](O)[C@H](O)[C@H]2O)[C@H]1O [Saikosaponin D] | 34% | 52% |  | 
2 | C[C@@H]1O[C@@H](O[C@H]2[C@H](O)[C@@H](O)[C@H](O[C@H]3CC[C@]4(C)[C@H]5CC=C6[C@@H]7CC(C)(C)CC[C@]7(CO)[C@@H](O)C[C@@]6(C)[C@]5(C)CC[C@H]4C3(C)C)O[C@@H]2CO[C@@H]2O[C@H](CO)[C@@H](O)[C@H](O)[C@H]2O)[C@H](O)[C@H](O)[C@H]1O [Saikosaponin F] | 1% | 0% |  | 
3 | CC[C@@H](C(=O)[C@@H](C)[C@@H](O)[C@H](C)[C@@H]1O[C@@H]([C@@H](CC)C(=O)O)CC[C@@H]1C)[C@H]1O[C@]2(C=C[C@@H](O)[C@]3(CC[C@@](C)([C@H]4CC[C@](O)(CC)[C@H](C)O4)O3)O2)[C@H](C)C[C@@H]1C [Salinomycin (sodium salt)] | 28% | 18% |  | 
4 | C[n+]1cc2c3c(ccc2c2ccc4cc5c(cc4c21)OCO5)OCO3.[Cl-] [Sanguinarine (chloride)] |  | 20% and 27% |  | 
5 | CCOC(=O)NCCCC(=O)NCCc1ccccc1 [Santacruzamate A] | 0% | 0% |  | 
6 | CC(C)(C)NC(=O)[C@@H]1C[C@@H]2CCCC[C@@H]2CN1C[C@@H](O)[C@H](Cc1ccccc1)NC(=O)[C@H](CC(N)=O)NC(=O)c1ccc2ccccc2n1.CS(=O)(=O)O [Saquinavir (Mesylate)] | 0% | 10% |  | 
7 | Cl.O=C(O)c1cn(-c2ccc(F)cc2)c2cc(N3CCNCC3)c(F)cc2c1=O [Sarafloxacin (hydrochloride)] | 32% | 3% |  | 
8 | COC(=O)C1=COC2OC3CC1C2C(C)O3 (centres unmarked) [Sarracenin] | 11% | 27% |  | 
9 | COc1ccc(-c2cc(=O)c3c(O)cc(O)c(-c4cc(-c5cc(=O)c6c(O)cc(OC)cc6o5)ccc4OC)c3o2)cc1 [Sciadopitysin] | 0% | 21% |  | 
10 | CC1(C)CCC[C@]2(C)[C@H]3CC(=O)O[C@]3(C)CC[C@@H]12 [Sclareolide] | 1% | 25% |  | 
11 | CN1[C@@H]2CC(O)C[C@H]1[C@@H]1O[C@@H]12 (some centres unmarked) [Scopine] | 13% | 5% |  | 
12 | COc1ccc(-c2cc(=O)c3c(OC)c(OC)c(OC)cc3o2)cc1 [Scutellarein tetramethyl ether] | 0% | 0% |  | 
13 | C=C[C@H]1[C@H](O[C@@H]2O[C@H](CO)[C@@H](O)[C@H](O)[C@H]2O)OC=C(C(=O)OC)[C@H]1CC(=O)O [Secoxyloganin] | 0% | 3% |  | 
14 | Clc1ccc(C(Cn2ccnc2)OCc2csc3c(Cl)cccc23)c(Cl)c1.O=[N+]([O-])O (centres unmarked) [Sertaconazole (nitrate)] | 40% | 6% |  | 
15 | COC(=O)C1=CO[C@@H](O[C@@H]2O[C@H](CO)[C@@H](O)[C@H](O)[C@H]2O)[C@@H]2[C@@]3(C)O[C@H]3[C@@H](O)[C@]12O [Sesamoside] | 4% | 25% |  | 
16 | C[C@]1(O)C[C@@H](O)[C@@H]2C(C(=O)O)=CO[C@@H](O[C@@H]3O[C@H](CO)[C@@H](O)[C@H](O)[C@H]3O)[C@@H]21 [Shanziside] | 1% | 4% |  | 
17 | CC(C)=CCC[C@]1(C)CC[C@]2(C)[C@H]3CC[C@@]4(C)[C@@H](CCC(=O)[C@@H]4C)[C@]3(C)CC[C@@]2(C)C1 [Shionone] | 24% | 52% |  | 
18 | C[C@H](CC[C@@H](O[C@@H]1O[C@H](CO[C@@H]2O[C@H](CO)[C@@H](O)[C@H](O)[C@H]2O)[C@@H](O)[C@H](O)[C@H]1O[C@@H]1O[C@H](CO)[C@@H](O)[C@H](O)[C@H]1O)C(C)(C)O)[C@H]1CC[C@@]2(C)[C@@H]3CC=C4[C@@H](CC[C@H](O[C@@H]5O[C@H](CO)[C@@H](O)[C@H](O)[C@H]5O)C4(C)C)[C@]3(C)[C@H](O)C[C@]12C [Siamenoside I] | 16% | 10% |  | 
19 | COc1cc([C@@H]2Oc3c(O)cc([C@H]4Oc5cc(O)cc(O)c5C(=O)[C@@H]4O)cc3[C@H]2CO)ccc1O [Silychristin] | 33% | 2% |  | 
20 | COc1cc(/C=C/C(=O)OCC[N+](C)(C)C)cc(OC)c1O.N#C[S-] [Sinapine (thiocyanate)] | 0% | 0% |  | 

Row | Compound | Percentage of motility inhibition 0 h [1] | Percentage of motility inhibition 24 h [2] | Percentage of motility inhibition 0 h (110 µM) | Percentage of motility inhibition 24 h (110 µM)
21 | COc1cc(/C=C/C(=O)OCC[N+](C)(C)C)cc(OC)c1O [Sinapine] |  |  | 0% | 1%
22 | C=CC/C(=N\OS(=O)(=O)[O-])S[C@@H]1O[C@H](CO)[C@@H](O)[C@H](O)[C@H]1O.O.[K+] [Sinigrin (hydrate)] | 0% | 19% |  | 
23 | C=CC/C(=N/OS(=O)(=O)[O-])S[C@@H]1OC(CO)[C@@H](O)C(O)C1O.[K+] (some centres unmarked) [Sinigrin] | 0% | 0% |  | 
24 | COC1=C[C@@H]2[C@@H]3Cc4ccc(OC)c(O)c4[C@]2(CCN3C)CC1=O.Cl [Sinomenine hydrochloride] |  | 0% and 8% |  | 
25 | COC1=C[C@@H]2[C@@H]3Cc4ccc(OC)c(O)c4[C@]2(CCN3C)CC1=O [Sinomenine] |  | 3% and 0% |  | 
26 | C[C@H]1CC[C@@H]2N(C1)C[C@H]1[C@@H]3C[C@H]4[C@@H](CC(=O)[C@H]5C[C@@H](O)CC[C@@]54C)[C@@H]3CC[C@H]1[C@]2(C)O [Sipeimine] | 0% | 9% |  | 
27 | CN[C@@H]1[C@@H](O)[C@@H](O[C@@H]2[C@@H](O)[C@H](O[C@H]3OC(CN)=CC[C@H]3N)[C@@H](N)C[C@H]2N)OC[C@]1(C)O.CN[C@@H]1[C@@H](O)[C@@H](O[C@@H]2[C@@H](O)[C@H](O[C@H]3OC(CN)=CC[C@H]3N)[C@@H](N)C[C@H]2N)OC[C@]1(C)O.O=S(=O)(O)O.O=S(=O)(O)O.O=S(=O)(O)O.O=S(=O)(O)O.O=S(=O)(O)O [Sisomicin (sulfate)] | 2% | 0% |  | 
28 | O=C([O-])c1ccccc1O.[Na+] [Sodium Salicylate] | 2% | 4% |  | 
29 | O.O.O=C([O-])CC(O)(CC(=O)[O-])C(=O)[O-].[Na+].[Na+].[Na+] [Sodium citrate (dihydrate)] | 32% | 2% |  | 
30 | CCCCCCCC/C=C\CCCCCCCC(=O)[O-].[Na+] [Sodium oleate] | 0% | 0% |  | 
31 | O.O=C1C=CC[C@@H]2[C@H]3CCCN4CCC[C@@H](CN12)[C@@H]34 [Sophocarpine (monohydrate)] | 0% | 0% |  | 
32 | CC(=O)OC[C@H]1O[C@@H](O[C@@H]2[C@@H](O)[C@H](O[C@@H]3[C@H](O)C(C)(C)C[C@H]4C5=CC[C@@H]6[C@@]7(C)CC[C@H](O[C@@H]8O[C@H](C(=O)O)[C@@H](O)[C@H](O)[C@H]8O[C@@H]8O[C@H](CO)[C@H](O)[C@H](O)[C@H]8O[C@@H]8O[C@H](CO)[C@@H](O)[C@H](O)[C@H]8O)[C@](C)(CO)[C@@H]7CC[C@@]6(C)[C@]5(C)CC[C@@]34C)OC[C@@H]2O)[C@H](OC(C)=O)[C@@H](OC(C)=O)[C@@H]1OC(C)=O [Soyasaponin Ab] | 21% | 4% |  | 
33 | CC1(C)C[C@@H](O)[C@]2(C)CC[C@]3(C)C(=CC[C@@H]4[C@@]5(C)CC[C@H](O[C@@H]6O[C@H](C(=O)O)[C@@H](O)[C@H](O)[C@H]6O[C@@H]6O[C@H](CO)[C@H](O)[C@H](O)[C@H]6O[C@@H]6O[C@H](CO)[C@@H](O)[C@H](O)[C@H]6O)[C@](C)(CO)[C@@H]5CC[C@]43C)[C@@H]2C1 [Soyasaponin Ba] | 0% | 25% |  | 
34 | C[C@@H]1O[C@@H](O[C@H]2[C@H](O[C@H]3[C@H](O[C@H]4CC[C@@]5(C)[C@@H](CC[C@]6(C)[C@@H]5CC=C5[C@@H]7CC(C)(C)C[C@@H](O)[C@]7(C)CC[C@]56C)[C@@]4(C)CO)O[C@H](C(=O)O)[C@@H](O)[C@@H]3O)O[C@H](CO)[C@H](O)[C@@H]2O)[C@H](O)[C@H](O)[C@H]1O [Soyasaponin Bb] | 0% | 0% |  | 
35 | CN[C@@H]1[C@H](O)[C@H](NC)[C@H]2O[C@@]3(O)C(=O)C[C@@H](C)O[C@H]3O[C@@H]2[C@H]1O.Cl.Cl [Spectinomycin (dihydrochloride)] | 0% | 1% |  | 
36 | COc1cc2oc(-c3ccc(O)cc3)cc(=O)c2c(O)c1[C@@H]1O[C@H](CO)[C@@H](O)[C@H](O)[C@H]1O[C@@H]1O[C@H](CO)[C@@H](O)[C@H](O)[C@H]1O [Spinosin] |  |  | 2% | 6%
37 | CCC(C)(C)C(=O)OC1=C(c2ccc(Cl)cc2Cl)C(=O)OC12CCCCC2 [Spirodiclofen] | 5% | 0% |  | 
38 | C[N+]1(C)CCC[C@H]1C(=O)[O-].Cl [Stachydrine hydrochloride] | 15% | 26% |  | 
39 | C[N+]1(C)CCC[C@H]1C(=O)[O-] [Stachydrine] | 0% | 0% |  | 
40 | CCCCCCCCCCCCCCCCCCOC(=O)[C@@]1(C)CC[C@]2(C)CC[C@]3(C)C(=CC(=O)[C@@H]4[C@@]5(C)CC[C@H](O)C(C)(C)[C@@H]5CC[C@]43C)[C@@H]2C1 [Stearyl glycyrrhetinate] | 0% | 0% |  | 
